Structures are written as SMILES. The source made the active and inactive calls.

The test system of experiment [1] is HEK293. The experiment is described as follows: NOD1 signaling inhibitors, primary screen, cell-based, luminescence, uHTS (AID 1578). Type of experiment: functional. The following applies: Homo sapiens.
For experiment [2], the system named is HEK293. The experiment is described as follows: cells. Type of experiment: functional, cell-based. The following applies: Homo sapiens.
For experiment [3], the target named is T1, Heat shock factor protein 1 (Mus musculus, UniProt P38532).
T1 sequence (P38532 whole entry): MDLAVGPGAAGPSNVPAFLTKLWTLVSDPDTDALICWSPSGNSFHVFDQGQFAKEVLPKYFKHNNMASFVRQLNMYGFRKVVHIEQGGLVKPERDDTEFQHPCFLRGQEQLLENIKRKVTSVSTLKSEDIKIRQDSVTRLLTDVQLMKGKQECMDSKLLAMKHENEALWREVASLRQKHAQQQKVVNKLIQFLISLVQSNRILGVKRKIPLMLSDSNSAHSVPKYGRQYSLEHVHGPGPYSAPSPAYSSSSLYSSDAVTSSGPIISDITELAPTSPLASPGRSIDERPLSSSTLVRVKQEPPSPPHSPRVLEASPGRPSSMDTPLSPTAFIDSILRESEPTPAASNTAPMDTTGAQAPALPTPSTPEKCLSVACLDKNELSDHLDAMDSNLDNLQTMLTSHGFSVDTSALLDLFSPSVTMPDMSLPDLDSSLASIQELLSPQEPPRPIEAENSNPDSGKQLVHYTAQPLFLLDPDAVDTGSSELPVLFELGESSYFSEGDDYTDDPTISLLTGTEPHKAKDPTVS
The experiment is described as follows: inhibition of MG132-induced HSE-luciferase signal, confirmation, cell-based, NIH3T3, luminescence, dose retest (AID 2382).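 Note: NIH3T3 fibroblasts with HSF1-driven luciferase reporter stressed by proteasome inhibitor MG132; luminescence from HSF1-driven luciferase expression after 8 hours of MG132 stress.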 Type of experiment: functional.

For experiment [4], the system named is HEK293. The experiment is described as follows: cells. The following applies: Homo sapiens. Type of experiment: functional, cell-based. The source holds these as a separate data set.
The target of experiment [5] is Nucleotide-binding oligomerization domain-containing protein 2 (Homo sapiens, UniProt Q9HC29). The experiment is described as follows: NOD2 signaling inhibitors, cell-based, luminescence, uHTS, HEK293 (AID 1566). Type of experiment: functional.
Chain of Nucleotide-binding oligomerization domain-containing protein 2 (Q9HC29 whole entry, the tested form may be a part): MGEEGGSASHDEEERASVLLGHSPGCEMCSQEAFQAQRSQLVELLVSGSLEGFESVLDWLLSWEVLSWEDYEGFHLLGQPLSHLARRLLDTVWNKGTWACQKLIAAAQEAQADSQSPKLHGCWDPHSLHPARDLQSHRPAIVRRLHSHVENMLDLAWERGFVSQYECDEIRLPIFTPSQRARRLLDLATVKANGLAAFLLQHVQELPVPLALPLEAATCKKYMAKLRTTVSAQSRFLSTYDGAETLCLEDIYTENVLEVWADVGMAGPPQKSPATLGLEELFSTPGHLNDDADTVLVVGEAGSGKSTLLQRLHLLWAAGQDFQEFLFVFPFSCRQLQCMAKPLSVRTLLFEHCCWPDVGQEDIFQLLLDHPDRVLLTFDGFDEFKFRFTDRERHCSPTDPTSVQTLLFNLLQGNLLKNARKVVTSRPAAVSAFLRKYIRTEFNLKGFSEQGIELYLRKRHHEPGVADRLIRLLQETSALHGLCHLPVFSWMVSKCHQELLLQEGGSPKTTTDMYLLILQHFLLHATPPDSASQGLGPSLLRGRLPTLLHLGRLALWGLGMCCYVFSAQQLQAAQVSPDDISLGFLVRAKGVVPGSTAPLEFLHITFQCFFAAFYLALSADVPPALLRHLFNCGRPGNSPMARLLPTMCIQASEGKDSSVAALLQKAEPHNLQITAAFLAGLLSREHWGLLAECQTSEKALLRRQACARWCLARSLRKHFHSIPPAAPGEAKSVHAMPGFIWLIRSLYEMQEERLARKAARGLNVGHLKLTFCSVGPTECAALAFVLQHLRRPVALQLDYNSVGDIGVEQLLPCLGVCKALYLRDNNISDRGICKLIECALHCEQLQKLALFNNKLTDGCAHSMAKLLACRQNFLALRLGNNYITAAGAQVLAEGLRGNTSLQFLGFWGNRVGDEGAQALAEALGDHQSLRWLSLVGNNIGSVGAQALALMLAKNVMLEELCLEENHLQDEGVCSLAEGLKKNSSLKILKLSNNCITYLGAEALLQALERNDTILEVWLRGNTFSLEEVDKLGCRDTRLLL
Experiment [6] deals with HEK293. The experiment in a line: NOD2 signaling inhibitors in MDP-stimulated cells, cell-based, uHTS, luminescence (AID 2001). Type of experiment: functional. The following applies: Homo sapiens.
The test system of experiment [7] is HEK293. The experiment is described as follows: cells. Type of experiment: functional, cell-based. The following applies: Homo sapiens. This is another data set of the same source.
Experiment [8] concerns the target T2, Microphthalmia-associated transcription factor (Homo sapiens, UniProt O75030).
T2 sequence (O75030 whole entry): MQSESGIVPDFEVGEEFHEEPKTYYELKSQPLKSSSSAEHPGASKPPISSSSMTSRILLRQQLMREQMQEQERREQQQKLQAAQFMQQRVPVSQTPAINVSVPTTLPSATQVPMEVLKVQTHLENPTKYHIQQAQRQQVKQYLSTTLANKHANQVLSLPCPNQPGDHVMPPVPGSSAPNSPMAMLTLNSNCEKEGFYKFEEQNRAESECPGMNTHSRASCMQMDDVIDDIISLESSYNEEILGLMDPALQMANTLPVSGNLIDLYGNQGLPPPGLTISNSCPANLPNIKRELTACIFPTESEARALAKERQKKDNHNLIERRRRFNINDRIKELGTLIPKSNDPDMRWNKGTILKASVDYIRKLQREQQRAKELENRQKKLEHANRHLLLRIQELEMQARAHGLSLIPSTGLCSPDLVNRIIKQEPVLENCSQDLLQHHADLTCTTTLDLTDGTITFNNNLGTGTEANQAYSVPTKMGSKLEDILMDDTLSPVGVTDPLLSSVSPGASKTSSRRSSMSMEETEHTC
The experiment in a line: TRPM1 promoter luciferase signal decrease, dose response, MITF inhibitor project, cell-based, SK-MEL-5, cherry-picked, set 3 (AID 493073).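 Note: SK-MEL-5 melanoma cells with luciferase driven by the MITF target TRPM1 promoter.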 Type of experiment: functional.

The target of experiment [9] is Photoreceptor-specific nuclear receptor (Homo sapiens, UniProt Q9Y5X4). Type of experiment: functional, cell-based.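 Note: CHO-S cells with Gal4-NCOR and VP16-NR2E3 two-hybrid luciferase reporter.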
Chain of Photoreceptor-specific nuclear receptor (Q9Y5X4 whole entry, the tested form may be a part): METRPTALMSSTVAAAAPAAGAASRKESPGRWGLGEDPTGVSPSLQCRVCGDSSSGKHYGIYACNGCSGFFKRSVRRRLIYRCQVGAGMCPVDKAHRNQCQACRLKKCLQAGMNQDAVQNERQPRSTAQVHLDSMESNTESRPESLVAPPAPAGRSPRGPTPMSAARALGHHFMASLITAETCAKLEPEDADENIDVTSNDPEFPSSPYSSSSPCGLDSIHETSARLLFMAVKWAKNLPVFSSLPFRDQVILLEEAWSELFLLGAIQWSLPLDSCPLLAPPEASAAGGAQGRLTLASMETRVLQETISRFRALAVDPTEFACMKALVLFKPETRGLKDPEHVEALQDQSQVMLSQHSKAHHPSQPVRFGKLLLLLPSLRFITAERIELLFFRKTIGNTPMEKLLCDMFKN
Experiment [10] can be described thus: A549 cell cytotoxicity, dose response, cytotoxicity control, plate reader, cherry-pick, antagonist series (AID 743412). Type of experiment: functional, cell-based.
A short description of experiment [11]: HepG2 cell cytotoxicity, dose response, cytotoxicity control, plate reader, cherry-pick, antagonist series (AID 743416). Type of experiment: functional, cell-based.
Experiment [12] can be described thus: LGR2 antagonists, dose response, cell-based, HEK293, CRE-luciferase reporter, cherry pick, set 2 (AID 743343).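 Note: transfected cells were stimulated with diluted bursicon conditioned medium after compound addition.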 Type of experiment: functional.
A short description of experiment [13]: MC4R antagonists, dose response, counter-screen for LGR2 antagonist project, cell-based, plate reader, cherry pick (AID 743444).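 Note: transfected HEK 293 cells stimulated with alpha-MSH peptide; potency of inhibitors of the alpha-MSH evoked signal.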 Type of experiment: functional.
Experiment [14] is described as follows: HEK293 cell cytotoxicity, dose response, cytotoxicity control, plate reader, cherry-picked samples (AID 743446). Type of experiment: functional, cell-based.
Experiment [15] can be described thus: cytotoxicity in HEK-293T cells, dose response, cytotoxicity control for TCR NF-kB inhibitor project, luminescence, T-cell screen hits (AID 489026).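 Note: cells exposed to compound about 14 hours before the viability readout.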 Type of experiment: functional, cell-based.
Experiment [16] in a line: inhibitors of HIV Env-driven cell fusion, dose response, cherry-pick (AID 652057). Type of experiment: functional, cell-based.
The nature of experiment [17]: ZM109 Env clade C HIV-1 fusion inhibitors, dose response, HeLa effector, CEM target cells, luciferase, cherry-pick (AID 652058). Type of experiment: functional, cell-based.
Experiment [18] can be described thus: inhibitors of clade B AD8 Env fusion, dose response, cell-based, cherry-pick (AID 652062).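 Note: luciferase signal from cell-cell fusion driven by HIV-1 clade B AD8 Env; potency is for inhibitors of fusion seen as a drop in luminescence.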 Type of experiment: functional.
Experiment [19] addresses T3, Tyrosine-protein phosphatase non-receptor type 7 (Homo sapiens, UniProt P35236).
T3 sequence (P35236 whole entry): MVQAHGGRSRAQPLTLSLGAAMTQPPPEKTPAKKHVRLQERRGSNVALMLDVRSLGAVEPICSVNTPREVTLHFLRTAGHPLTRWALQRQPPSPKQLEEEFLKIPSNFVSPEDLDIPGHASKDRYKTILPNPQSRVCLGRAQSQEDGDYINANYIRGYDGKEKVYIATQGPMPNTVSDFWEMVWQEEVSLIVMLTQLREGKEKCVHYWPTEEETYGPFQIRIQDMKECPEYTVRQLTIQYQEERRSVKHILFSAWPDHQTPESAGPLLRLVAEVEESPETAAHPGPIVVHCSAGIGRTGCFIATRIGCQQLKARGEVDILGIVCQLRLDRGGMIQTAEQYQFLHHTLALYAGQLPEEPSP
Type of experiment: functional.

The target in experiment [20] is Glyceraldehyde-3-phosphate dehydrogenase (Homo sapiens, UniProt P04406).
Chain of Glyceraldehyde-3-phosphate dehydrogenase (P04406 whole entry): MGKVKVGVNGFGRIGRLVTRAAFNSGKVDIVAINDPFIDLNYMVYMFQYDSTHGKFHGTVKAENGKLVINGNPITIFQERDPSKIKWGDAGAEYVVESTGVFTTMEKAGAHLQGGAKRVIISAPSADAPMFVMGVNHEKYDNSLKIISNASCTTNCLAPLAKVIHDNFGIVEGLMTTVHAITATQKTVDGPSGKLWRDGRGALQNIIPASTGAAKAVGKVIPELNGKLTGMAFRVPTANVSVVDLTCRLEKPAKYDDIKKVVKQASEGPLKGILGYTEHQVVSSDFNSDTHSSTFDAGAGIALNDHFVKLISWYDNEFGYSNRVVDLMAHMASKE
Experiment [21] has as its target T4, Dual specificity protein phosphatase 6 (Rattus norvegicus, UniProt Q64346).
T4 sequence (Q64346 whole entry): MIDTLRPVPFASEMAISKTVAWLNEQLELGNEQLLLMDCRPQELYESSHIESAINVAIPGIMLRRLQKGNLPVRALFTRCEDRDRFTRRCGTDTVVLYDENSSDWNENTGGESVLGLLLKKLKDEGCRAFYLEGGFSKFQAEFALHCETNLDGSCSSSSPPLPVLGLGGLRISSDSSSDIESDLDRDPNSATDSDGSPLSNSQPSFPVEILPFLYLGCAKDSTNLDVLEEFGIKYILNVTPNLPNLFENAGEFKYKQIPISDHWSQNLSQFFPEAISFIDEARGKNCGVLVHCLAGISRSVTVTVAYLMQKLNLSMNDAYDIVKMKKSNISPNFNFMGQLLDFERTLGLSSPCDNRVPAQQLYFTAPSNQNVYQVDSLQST

For experiment [22], the target named is T4, Dual specificity protein phosphatase 6. Type of experiment: functional.

As to `Cc1cc(C)c(C#N)c(SCc2nnc(-c3ccccc3)o2)n1`, the results for the EC50 (in the experiment on HEK293 [1]; in experiment [3]; in experiment [5]) were 10.5 µM (active), < 0.16 µM (active) and < 0.31 µM (inactive), respectively. For the same molecule, the IC50 in the experiment on HEK293 [2] is 6.41 µM (active); in the experiment on HEK293 [4], > 20 µM (inactive); in the experiment with HEK293 [6], 12.6 µM (inactive); in the experiment with HEK293 [7], > 20 µM (inactive); in experiment [9], 35.7 µM (inactive). Also, the AC50 was 0.024 µM (active) in experiment [8]; > 52 µM (inactive) in experiment [10]; > 52 µM (inactive) in experiment [11]; 0.281 µM (active) in [12]; 0.321 µM (active) in experiment [13]; > 52 µM (inactive) in experiment [14].
Turning to `Clc1ccc2c(c1)C(C1=NCCN1)c1ccccc1CS2` (stereo unspecified), the IC50 in [15] was > 80 µM (inactive). Moreover, the AC50 in experiment [16] was 1.48 µM (active); in experiment [17] it was 2.07 µM (active); in [18], 4.39 µM (active).
On to `CCn1c(=O)n(C)c(=O)n([C@@H](Cc2ccccc2)C(N)=O)c1=O`, for which the IC50 was > 100 µM (not active) in experiment [19], > 100 µM (not active) in experiment [20], > 100 µM (inactive) in experiment [21] and > 100 µM (inactive) in experiment [22].
For the molecule `CCCn1c(=O)nc(NCc2ccccc2OC)[nH]c1=O`, the IC50 is > 100 µM (not active) in experiment [19], > 100 µM (not active) in experiment [20], > 100 µM (inactive) in experiment [21] and > 100 µM (inactive) in experiment [22].

Values taken from ChEMBL document CHEMBL1201862, “PubChem BioAssay data set” (2004).
